In patent US8765786B2, “1-substituted indazole derivative” (Dainippon Sumitomo Pharma Co., Ltd., priority 2012, dated 2014):

The compounds below were run against T1, human α7 nAChR (Homo sapiens, UniProt P36544) (assay: Evaluation of PAM activity with human α7 nACh receptor stably expressing cells (aequorin luminescence, FDSS7000)). Details: result in words; ratio of RLU (Max-Min) to control wells, ACh EC20.
T1 construct: expressed in transfected cells; host or cells: GH4C1 cells derived from rat pituitary (ATCC CCL-82.2)
T1 sequence (P36544 23-502): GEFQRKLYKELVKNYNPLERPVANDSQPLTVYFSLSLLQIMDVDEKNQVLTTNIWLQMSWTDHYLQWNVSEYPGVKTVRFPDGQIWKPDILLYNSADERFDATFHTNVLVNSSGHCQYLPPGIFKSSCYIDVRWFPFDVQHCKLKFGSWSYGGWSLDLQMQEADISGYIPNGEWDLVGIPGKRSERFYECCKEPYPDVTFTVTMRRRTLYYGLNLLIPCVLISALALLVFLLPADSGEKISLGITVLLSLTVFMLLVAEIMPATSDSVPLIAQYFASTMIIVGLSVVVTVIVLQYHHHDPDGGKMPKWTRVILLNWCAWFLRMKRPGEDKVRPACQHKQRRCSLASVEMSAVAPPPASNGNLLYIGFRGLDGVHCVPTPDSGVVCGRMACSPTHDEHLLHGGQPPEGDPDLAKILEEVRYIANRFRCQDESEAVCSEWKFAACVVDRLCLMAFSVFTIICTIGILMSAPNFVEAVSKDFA
Assay type: cell-based
From the text: Human α7 nAChR stably expressing cells were generated and cultured. In detail, GH4C1 cells derived from rat pituitary (cat#CCL-82.2, ATCC, USA) were used as a host cell. PcDNA3.1Zeo vector containing a nucleotide sequence encoding a protein GenBank BAC81731 and pcDNA3.1 vector containing human α7 nAChR gene (cat#V790-20, invitrogen, Carlsbad, Calif., USA) were transfected to the cells to give aequorins and human α7 nAChR stably expressing cells respectively. The aequorins and human α7 nAChR stably expressing cells were screened with Zeocin (cat#R25001, invitrogen, Carlsbad, Calif., USA) and Geneticin (cat #10131-027, invitrogen, Carlsbad, Calif., USA) respectively.
The cells were cultured in F-10 Nutrient Mixture (Ham) medium (cat #11550-043, invitrogen, Carlsbad, Calif., USA) containing 2.5% fetal bovine serum (cat #2917354, ICN Biomedicals, Inc, USA), 15% inactivated horse serum (cat #26050-088, invitrogen, Carlsbad, Calif., USA), 1 μg/mL Geneticin, and 5 μg/mL Puromycin (cat #14861-84, invitrogen, Carlsbad, Calif., USA), in a Collagen Type 1-coated dish (cat #4030-010, iwaki, Tokyo, Japan). During the culture, the medium was replaced with fresh medium in every 2 to 3 days, and the cells were treated with TrypLE Express (cat #45604-021, invitrogen, Carlsbad, Calif., USA) to collect them in every 7 days. Thus, the cells were subcultured.
7 Days after subculturing, the cells were treated with TrypLE Express to collect them when they were about 80% confluent. The cells were suspended in a reaction medium containing Hanks (cat #14065-056, invitrogen, Carlsbad, Calif., USA)/20 mmol/L Hepes (cat #15630-080, invitrogen, Carlsbad, Calif., USA), Buffer (pH 7.4), F-10 Nutrient Mixture (Ham), and 0.1 mg/mL Geneticin, and the suspension was seeded in a 384-well plate (cat #781090, Greiner, Germany) at 20000 cells/25 μL per well.
On the next day after seeding, Viviren (cat#E649X, Promega, Madison, Wis., USA) was added to the medium so that the final concentration could be 4 μmol/L (15 μL/well). The plates were centrifuged and then placed in the dark for 4 hours at room temperature.
Each of the test compounds was dissolved in DMSO to prepare each test sample at a concentration of 1000-fold the final concentration. To the solution was added Hanks/20 mM HEPES/0.2% BSA (cat#A3803, Sigma, St. Louis, Mo., USA), and the concentration was adjusted to 6-fold the final concentration.
FDSS7000 (Hamamatsu Photonics) was used to detect the luminescence signal evoked by α7 nAChR stimulation. The cells and a luminescent substrate were put on a plate, and the test sample was added thereto. […] After the addition of ACh, the luminescence signal (the central wavelength: 465 nm) was measured for 138 seconds to calculate RLU (Max-Min). The ratio of the RLU (Max-Min) of the test-compound-containing wells to that of the control wells was defined as PAM activity.

Structure (SMILES)	PAM activity for α7 nAChR
CCc1ccc2c(cnn2[C@H]2CC[C@@H](NC(=O)C3CCCCC3)CC2)c1 [Example 119]	stronger PAM activity than others
Cc1ccc2c(cnn2C2CCN(C(=O)NC3CCCCC3)CC2)c1 [Example 8, N-cyclohexyl-4-(5-methyl-1H-indazol-1-yl)piperidine-1-carboxamide]	stronger PAM activity than others

Same assay, conditions: test compound 10 μmol/L; ACh added at EC20; ratio of RLU (Max-Min) of test wells to control wells

Structure (SMILES)	α7PAM (%) @ 10 μmol/L
CCc1ccc2c(cnn2C2CCCN(C(=O)NC3CCC(F)(F)CC3)CC2)c1 (centres unmarked) [Example 73]	453%
Cc1ccc2c(cnn2C2CCN(C(=O)C3CCC(F)(F)CC3)CC2)c1 [Example 133]	568%
COc1ccc2c(cnn2C2CCN(C(=O)N[C@H]3CC[C@H](OC)CC3)CC2)c1OC [Example 306]	147%
COCc1c(C2CC2)ccc2c1cnn2C1CCN(C(=O)N[C@H]2CC[C@H](OC)CC2)CC1 [Example 216]	271%
COCC1CCC(NC(=O)N2CCC(n3ncc4cc(F)ccc43)CC2)CC1 (centres unmarked) [Example 236]	331%
[2H]C([2H])([2H])c1ccc2c(cnn2C2CCN(C(=O)NC3CCCC3)CC2)c1 [Example 315]	825%
[2H]C([2H])([2H])c1ccc2c(cnn2C2CCN(C(=O)NC3CCC(OCC)CC3)CC2)c1 (centres unmarked) [Example 314]	949%
CCc1ccc2c(c1)c(OC)nn2C1CCN(C(=O)NC2CCOCC2)CC1 [Example 150]	643%
Cc1ccc2c(cnn2C2CCN(C(=O)NC3CCC(OCC(F)(F)F)CC3)CC2)c1 (centres unmarked) [Example 83]	420%
CCc1ccc2c(cnn2C2CCN(C(=O)NC3CCOCC3)CC2)c1 [Example 24]	745%
COc1ccc2c(c1)c(C1CC1)nn2C1CCN(C(=O)N[C@H]2CC[C@H](OC)CC2)CC1 [Example 257]	801%
CCOc1ccc2c(cnn2C2CCN(C(=O)NC3CCC(COC)CC3)CC2)c1 (centres unmarked) [Example 234]	824%
COc1ccc2c(cnn2C2CCN(C(=O)NC3CCC(F)(F)CC3)CC2)c1OC [Example 305]	729%
COCCc1ccc2c(cnn2C2CCN(C(=O)NC3CCC(F)(F)CC3)CC2)c1 [Example 239]	485%
CCOc1nn(C2CCN(C(=O)NC3CCCC3)CC2)c2ccc(CC)cc12 [Example 56]	676%
Cc1ccc2c(cnn2C2CCN(C(=O)N[C@H]3CC[C@H](OCC4CC4)CC3)CC2)c1 [Example 162]	1874%
CCc1ccc2c(cnn2[C@H]2CC[C@@H](NC(=O)C3CCCCC3)CC2)c1 [Example 119]	2154%
Cc1ccc2c(cnn2C2CCN(C(=O)NC3CCOC(C)(C)C3)CC2)c1 (centres unmarked) [Example 12]	231%
[2H]C([2H])([2H])Oc1nn(C2CCN(C(=O)NC3CCC(F)(F)CC3)CC2)c2ccc(C(F)(F)F)cc12 [Example 310]	134%
CC(C)c1ccc2c(cnn2C2CCN(C(=O)C3CCOCC3)CC2)c1 [Example 107]	159%
Cc1c(Br)ccc2c1cnn2C1CCN(C(=O)NC2CCC(F)(F)CC2)CC1 [Example 286]	825%
Cc1ccc2c(cnn2C2CCN(C(=O)NC3CC(F)(F)C3)CC2)c1 [Example 218]	648%
CC(C)c1ccc2c(cnn2C2CCN(C(=O)NC3CCOCC3)CC2)c1 [Example 14]	728%
O=C(NC1CCC(F)(F)CC1)N1CCC(n2ncc3cc(N4CCCC4)ccc32)CC1 [Example 224]	286%
COc1ccc2c(cnn2C2CCN(C(=O)NC3CCCCC3(F)F)CC2)c1 (centres unmarked) [Example 86]	1481%

Structure (SMILES)	α7PAM (%) @ 10 μmol/L
CCc1ccc2c(cnn2[C@H]2CC[C@@H](C(=O)NC3CCCCC3)CC2)c1 [Example 127]	806%
CCc1nn(C2CCN(C(=O)NC3CCC(F)(F)CC3)CC2)c2ccccc12 [Example 53]	309%
CCOc1ccc2c(cnn2C2CCN(C(=O)C3CCCCC3)CC2)c1 [Example 109]	267%
CCc1cnc2c(cnn2C2CCN(C(=O)NC3CCC(F)(F)CC3)CC2)c1 [Example 99]	755%
COc1ccc2c(cnn2C2CCN(C(=O)N[C@H]3CC[C@H](OC)CC3)CC2)c1C [Example 279]	185%
[2H]C([2H])([2H])Oc1c(C2CC2)ccc2c1cnn2C1CCN(C(=O)NC2CCOCC2)CC1 [Example 323]	886%
COCc1nn(C2CCN(C(=O)NC3CCCC3)CC2)c2ccc(C)cc12 [Example 67]	436%
COCCCc1ccc2c(cnn2C2CCN(C(=O)NC3CCCC3)CC2)c1 [Example 31]	1191%
CCc1ccc2c(c1)c(OC(C)C)nn2C1CCN(C(=O)NC2CCCC2)CC1 [Example 58]	577%
O=C(NC1CCCOC1)N1CCC(n2ncc3cc(C4CC4)ccc32)CC1 (centres unmarked) [Example 177]	712%
O=C(C1CCC(F)(F)CC1)N1CCC(n2ncc3ccccc32)CC1 [Example 137]	328%
COCCCc1ccc2c(cnn2C2CCN(C(=O)NC3CCC(F)(F)CC3)CC2)c1 [Example 26]	521%
CCc1cccc2c1cnn2C1CCN(C(=O)C2CCC(F)(F)CC2)CC1 [Example 139]	1018%
CCc1c(OC)ccc2c1cnn2C1CCN(C(=O)NC2CCC(F)(F)CC2)CC1 [Example 287]	645%
Cc1ccc2c(cnn2C2CCN(C(=O)NC3CCCC3)CC2)c1 [Example 7]	1044%
CCc1nn(C2CCN(C(=O)NC3CCOCC3)CC2)c2ccc(C)cc12 [Example 43]	528%
O=C(NC1CCOCC1)N1CCC(n2ncc3cc(Br)ccc32)CC1 [Example 65]	385%
COc1ccc(C2(NC(=O)N3CCC(n4ncc5cc(C6CC6)ccc54)CC3)CC2)cc1 [Example 206]	196%
COc1ccc(-c2ccc3c(cnn3C3CCN(C(=O)NC4CCC(F)(F)CC4)CC3)c2)cc1 [Example 156]	358%
COC1CCC(NC(=O)N2CCC(n3ncc4cc(OC(C)C)ccc43)CC2)CC1 (centres unmarked) [Example 47]	375%
[2H]C([2H])([2H])O[C@H]1CC[C@H](NC(=O)N2CCC(n3ncc4c(CC)cccc43)CC2)CC1 [Example 307]	464%
COc1nn(C2CCN(C(=O)NC3CCOCC3)CC2)c2ccc(OC(F)(F)F)cc12 [Example 264]	263%
CO[C@H]1CC[C@H](NC(=O)N2CCC(n3ncc4c(C)c(OC(F)F)ccc43)CC2)CC1 [Example 293]	525%
CCc1ccc2c(cnn2[C@H]2CC[C@@H](C(=O)NC3CCOCC3)CC2)c1 [Example 129]	325%
COC1CCC(NC(=O)N2CCC(n3ncc4cc(C)ccc43)CC2)CC1 (centres unmarked) [Example 91]	217%

Same assay, conditions: test compound 10 μmol/L; ACh added at EC20; ratio of RLU (Max-Min) of test wells to control wells; read-out: α7PAM (%) @ 10 μmol/L

Structure (SMILES)	activity at 10 µM
O=C(NC1CCC(F)(F)CC1)N1CCC(n2ncc3cc(F)ccc32)CC1 [Example 28, N-(4,4-difluorocyclohexyl)-4-(5-fluoro-1H-indazol-1-yl)piperidine-1-carboxamide]	340%
